{"source": "patent US20240316000A1", "about": "“METHODS OF TREATMENT” (DIFFUSION PHARMACEUTICALS LLC, priority 2021, published 2024)", "key": {"[1]": {"assay": "Absorption after intramuscular injection of TSC with gamma cyclodextrin", "assay_type": "in vivo", "details": "injected intramuscularly with gamma cyclodextrin; rats"}, "[2]": {"test_system": "healthy volunteers exercising at altitude", "assay": "Crossover study in healthy volunteers exercising at simulated altitude of 15,000 feet (arterial blood gas, VO2 max, SpO2, lactate)", "assay_type": "in vivo, human", "text": "This is a double-blind, randomized, placebo-controlled crossover study designed to investigate TSC's effects on oxygen enhancement using an experimental model to induce hypoxia in study participants. The primary endpoints measured in this study are maximal oxygen consumption and partial pressure of arterial blood oxygen in normal healthy volunteers subjected to incremental levels of physical exertion while exposed to hypoxic and hypobaric conditions at a simulated altitude of 15,000 feet above sea level. The secondary endpoints are to assess the effect of TSC on SpO2 and lactate.\nA total of 30 healthy volunteers are enrolled in the trial with each subject serving as their own control by completing the experiment twice in a random, blinded order in the same day with a 3-hour rest and wash out period between experimental intervals. During one ascent, study subjects receive intravenous (IV) placebo administration and the other ascent the same subject receives a single IV dose of TSC at one of three dose levels (0.5 mg/kg, 1.5 mg/kg, or 2.5 mg/kg).\nPrimary analyses will be based on sequence matched changes in median PaO2 and median VO2 following a single administration of TSC versus placebo in subjects exposed to simulated altitude and undergoing exercise. This is a crossover design, repeated measures study where each subject will serve as their own control. Each subject will be randomized to a TSC dose and will also be randomized to their altitude exposure sequence on the day of testing."}, "hemorrhagic shock": {"test_system": "hemorrhagic shock", "details": "after hemorrhagic shock in rats; cited from earlier work"}, "healthy volunteers": {"test_system": "healthy volunteers", "assay": "Safety assessment in the tcpO2 study (adverse events, vital signs)", "assay_type": "in vivo, human", "protocol": "Vital signs during the treatment and evaluation period are assessed at 10, 30, and 60 minutes post-study drug dosing. Adverse events are assessed throughout."}, "[3]": {"test_system": "patients with peripheral artery disease", "details": "0.25 mg/kg to 2.0 mg/kg tested, cited from earlier work"}, "[4]": {"assay": "Stability of TSC versus pH", "assay_type": "physicochemical"}, "[5]": {"assay": "Solubility of TSC in water with gamma-cyclodextrin", "assay_type": "physicochemical"}, "[6]": {"assay": "Population pharmacokinetics of TSC in plasma (LC-MS/MS, two-compartment model)", "assay_type": "in vivo, human", "design": "V2 / V1: unit not given here", "protocol": "Prior to and following study drug administration, PK samples are obtained at the below intervals: • Pre-dose (within 10 minutes prior to injection) • 1 minute post end of injection (+1 minute) • 10 minutes post end of injection (±1 minute) • 30 minutes post end of injection (±1 minute) • 1.5 hours post end of injection (±2 minutes)\nPlasma is assayed for TSC using LC-MS/MS using prednisone as an internal standard. Sample pre-treatment involves a protein precipitation extraction procedure. Lower limit of quantitation is 10 ng/ml.\nFor 19 of the 24 subjects included in the PK analysis, TSC concentration (Cp: Concentration in Plasma.) in the 1-minute sample is smaller (often many-fold) compared to the 10-minute sample, most likely a result of sampling too soon after the dose is administered. As a result, all 1-minute samples are excluded from population PK analysis.\nBased on previous analyses and examination of drug concentration profiles, a two-compartment model with no covariates fit the data well. To determine whether the systemic parameters should be scaled for body size, three scaling approaches are evaluated: scaling all parameters by weight, allometric scaling (clearances scaled by weight raised to the 0.75 power; distribution volumes scaled by weight), and scaling all parameters by weight raised to an estimated power. The weight normalized model is preferred statistically (evaluated by the decrease in the objective function [similar to a sum of squares]) and by graphics. […] A model is evaluated in which clearance varied as a linear function of dose: […]"}, "[7]": {"details": "2.5 mg/kg, end of exercise and 10 minutes post-exercise"}, "[8]": {"details": "change last exercise to 10-minutes post-exercise, 2.5 mg/kg vs other TSC doses and placebo"}, "[9]": {"details": "last exercise value minus baseline, 2.5 mg/kg vs other TSC doses and placebo"}, "[10]": {"details": "last exercise value, 2.5 mg/kg vs other TSC doses and placebo"}, "[11]": {"details": "population estimate, multiplied by SCALE (WT/75)"}}}
{"smiles": "CC(/C=C/C=C(\\C)C(=O)[O-])=C\\C=C\\C=C(C)\\C=C\\C=C(/C)C(=O)O.[Na+]", "note": "[TSC, trans sodium crocetinate]", "values": [{"measurement": "Absorption into the blood stream", "setting": "[1]", "value": "Absorption is quick"}, {"measurement": "Post-exercise recovery (pH, lactate, SpO2 and other markers)", "setting": "[2]; 2.5 mg/kg, 10 minutes post-exercise versus last exercise measurements", "value": "positive effect on post-exercise recovery"}, {"measurement": "Blood pH following exercise under hypoxic conditions", "setting": "[2]; [7]", "value": "increase in pH"}, {"measurement": "Lactate following exercise under hypoxic conditions", "setting": "[2]; [7]", "value": "decrease in lactate"}, {"measurement": "Effects on pH at the end of the exercise period versus baseline, compared to placebo", "setting": "[2]; 2.5 mg/kg, p<0.1", "value": "significantly different"}, {"measurement": "Intra-day maximal oxygen consumption tests", "setting": "[2]; 0.5, 1.5, 2.5 mg/kg IV", "value": "no observed changes"}, {"measurement": "Partial pressure of arterial blood oxygen", "setting": "[2]; 0.5, 1.5, 2.5 mg/kg IV", "value": "no observed changes"}, {"measurement": "pH, least square mean", "setting": "[2]; 10-minute post-exercise change from baseline (smallest reduction), 2.5 mg/kg vs other TSC doses and placebo, p=0.01 vs placebo", "value": "highest least square mean value"}, {"measurement": "HCO3, least square mean", "setting": "[2]; 10-minute post-exercise change from baseline, 2.5 mg/kg vs other TSC doses and placebo", "value": "highest least square mean value"}, {"measurement": "Lactic acid, least square mean", "setting": "[2]; 10-minute post-exercise change from baseline, 2.5 mg/kg vs other TSC doses and placebo, p<0.05 vs 0.5 mg/kg", "value": "lowest least square mean value"}, {"measurement": "Oxygen saturation, least square mean", "setting": "[2]; 10-minute post-exercise change from baseline, 2.5 mg/kg vs other TSC doses and placebo, p<0.05 vs 0.5 mg/kg, p=0.01 vs placebo", "value": "highest least square mean value"}, {"measurement": "PAO2, least square mean", "setting": "[2]; 10-minute post-exercise change from baseline, 2.5 mg/kg vs other TSC doses and placebo, separates statistically from 0.5 mg/kg", "value": "highest least square mean value"}, {"measurement": "pH, change", "setting": "[2]; change last exercise to 10-minutes post-exercise, 2.5 mg/kg", "value": "smallest change"}, {"measurement": "Lactic acid, least square mean", "setting": "[2]; change last exercise to 10-minutes post-exercise, 2.5 mg/kg and 1.5 mg/kg vs other TSC doses and placebo", "value": "lowest least square mean value"}, {"measurement": "HCO3, least square mean", "setting": "[2]; [8]", "value": "highest least square mean value"}, {"measurement": "Oxygen saturation, least square mean", "setting": "[2]; [8]", "value": "highest least square mean value"}, {"measurement": "PACO2, least square mean", "setting": "[2]; [8]", "value": "highest least square mean value"}, {"measurement": "PAO2, least square mean", "setting": "[2]; [8]", "value": "highest least square mean value"}, {"measurement": "PAO2, least square mean", "setting": "[2]; last exercise value minus baseline, 0.5 mg/kg TSC dose and placebo vs other TSC doses", "value": "lowest least square mean value"}, {"measurement": "HCO3, least square mean", "setting": "[2]; [9]", "value": "highest least square mean value"}, {"measurement": "Oxygen saturation, least square mean", "setting": "[2]; [9]", "value": "lowest least square mean value"}, {"measurement": "VO2 maximum, least square mean", "setting": "[2]; [9]", "value": "lowest least square mean value"}, {"measurement": "pH, least square mean", "setting": "[2]; last exercise value minus baseline, 2.5 mg/kg vs other TSC doses and placebo, separates statistically from 0.5 mg/kg", "value": "highest least square mean value"}, {"measurement": "Lactic acid, least square mean", "setting": "[2]; last exercise value minus baseline, 2.5 mg/kg vs other TSC doses and placebo, trend lower with dose", "value": "lowest least square mean value"}, {"measurement": "PACO2, least square mean", "setting": "[2]; [10]", "value": "highest least square mean value"}, {"measurement": "pH, least square mean", "setting": "[2]; [10]", "value": "highest least square mean value"}, {"measurement": "Lactic acid, least square mean", "setting": "[2]; last exercise value, 2.5 mg/kg vs other TSC doses and placebo, p<0.1 vs 0.5 mg/kg, trend lower with dose", "value": "lowest least square mean value"}, {"measurement": "Oxygen saturation, least square mean", "setting": "[2]; last exercise value, 2.5 mg/kg vs other TSC doses and placebo, p<0.1 vs 1.5 mg/kg", "value": "lowest least square mean value"}, {"measurement": "HCO3, least square mean", "setting": "[2]; last exercise value, 2.5 mg/kg vs other TSC doses and placebo, separates statistically from 0.5 mg/kg", "value": "highest least square mean value"}, {"measurement": "PAO2, least square mean", "setting": "[2]; last exercise value, 2.5 mg/kg vs other TSC doses and placebo, separates statistically from 1.5 mg/kg", "value": "lowest least square mean value"}, {"measurement": "Sequence effect in subjects who received TSC in the first ascent of the day", "setting": "[2]; pH change from baseline, p<0.05 placebo first vs second", "value": "carry-over"}, {"measurement": "Oxygen saturation, least square mean", "setting": "[2]; post-exercise value, 2.5 mg/kg vs other TSC doses and placebo", "value": "highest least square mean value"}, {"measurement": "PACO2, least square mean", "setting": "[2]; post-exercise value, 2.5 mg/kg vs other TSC doses and placebo, p<0.05 vs 0.5 mg/kg", "value": "highest least square mean value"}, {"measurement": "Lactic acid, least square mean", "setting": "[2]; post-exercise value, 2.5 mg/kg vs other TSC doses and placebo, p<0.05 vs 0.5 mg/kg, p=0.01 vs placebo", "value": "lowest least square mean value"}, {"measurement": "pH, least square mean", "setting": "[2]; post-exercise value, 2.5 mg/kg vs other TSC doses and placebo, separates from 0.5 mg/kg, p=0.01 vs placebo", "value": "highest least square mean value"}, {"measurement": "HCO3, least square mean", "setting": "[2]; post-exercise value, 2.5 mg/kg vs other TSC doses and placebo, separates statistically from 0.5 mg/kg", "value": "highest least square mean value"}, {"measurement": "Whole-body oxygen consumption", "setting": "hemorrhagic shock", "value": "increase whole-body oxygen consumption"}, {"measurement": "Serious adverse events or withdrawals", "setting": "healthy volunteers; 30 subjects", "value": "No subjects experience a serious adverse event"}, {"measurement": "Number of treatment-emergent adverse events determined to be drug-related", "setting": "healthy volunteers; of nine events, all mild in intensity", "value": "five"}, {"measurement": "Subjects with treatment-emergent adverse events", "setting": "healthy volunteers; seven of the 30 subjects (TSC and placebo cohorts), nine events overall", "value": 23.3, "unit": "%"}, {"measurement": "Safety and tolerability", "setting": "healthy volunteers; single IV bolus 0.5-2.5 mg/kg", "value": "safe and well tolerated"}, {"measurement": "Serious adverse events or dose-limiting toxicities", "setting": "healthy volunteers; up to and including the 2.5 mg/kg iv dose", "value": "no serious adverse events or dose-limiting toxicities"}, {"measurement": "Dose with greatest increase in claudication onset time", "setting": "[3]", "value": 0.25, "unit": "mg/kg"}, {"measurement": "Dosing arm with peak increase in peak walking time", "setting": "[3]; after 5 days of treatment", "value": 1.50, "unit": "mg/kg"}, {"measurement": "Stability as a function of pH", "setting": "[4]", "value": "more stable at higher pHs"}, {"measurement": "TSC content of aqueous solutions", "setting": "[5]; TSC and gamma-cyclodextrin", "value": "≤ 44 milligrams of TSC per ml of solution"}, {"measurement": "TSC content of solutions", "setting": "[5]; formulated with a cyclodextrin and mannitol", "value": "over 20 mg TSC/ml of solution"}, {"measurement": "Clearance as a function of dose", "setting": "[6]; IV bolus 0.5-2.5 mg/kg", "value": "clearance decreases at escalating doses"}, {"measurement": "TSC plasma concentrations as a function of dose", "setting": "[6]; IV bolus 0.5-2.5 mg/kg, highest at 2.5 mg/kg", "value": "increase with escalating dose"}, {"measurement": "clearance", "setting": "[6]; human, plasma, population estimate, single IV bolus 0.5-2.5 mg/kg, multiplied by SCALE (WT/75) and FCTR 1-0.53677 · (DOSE/1.5)", "value": 137, "unit": "mL/min"}, {"measurement": "Distribution Clearance", "setting": "[6]; [11]", "value": "161.176 · SCALE L/day"}, {"measurement": "V1", "setting": "[6]; [11]", "value": "4.277 · SCALE"}, {"measurement": "V2", "setting": "[6]; [11]", "value": "46.61 · SCALE"}]}
